Experimental data: PMC9638024, “Functional rewiring of G protein-coupled receptor signaling in human labor” (Cell Reports, 2022)
pEC50: −log10 of the molar value.

Molecular target: T1, EP2 (prostaglandin E2 receptor EP2) (Homo sapiens, UniProt P43116)
T1 construct: gene PTGER2; FLAG-EP2 stably expressed in HEK 293 cells
Test: cAMP accumulation dose-response in HEK […] cells stably expressing FLAG-EP2 (agonist)
Type: cell-based

T1 sequence (P43116 whole entry): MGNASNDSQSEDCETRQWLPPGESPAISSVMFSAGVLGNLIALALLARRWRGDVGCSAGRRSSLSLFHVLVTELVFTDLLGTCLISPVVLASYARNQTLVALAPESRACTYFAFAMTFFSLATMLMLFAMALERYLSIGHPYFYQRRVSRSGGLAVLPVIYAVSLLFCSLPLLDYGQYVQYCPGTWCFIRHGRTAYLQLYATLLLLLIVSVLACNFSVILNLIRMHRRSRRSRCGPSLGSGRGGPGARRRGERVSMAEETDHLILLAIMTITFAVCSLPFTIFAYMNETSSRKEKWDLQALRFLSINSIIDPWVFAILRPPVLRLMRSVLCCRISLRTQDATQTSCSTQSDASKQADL

pEC50: 8.68
SMILES: CC(C)OC(=O)COc1cccc(NC(=O)c2cc(-c3cccc(F)c3)ccc2F)c1 [PGN9856i]
